pEC50: −log10 of the molar value. Counter-ions that a name gives are not always drawn. Like-named read-outs stand apart in the source and are kept apart here.
Tests used:
TU-BcX-4IC 3D cultures [1] = experiment: Imaging read-out, 3D culture; details: Homo sapiens, 120 h, read-out: EC50, Imaging 3D
Procedure: (§1) Cell metabolism may be measured by ATP level as another readout for effects of anti-cancer drugs that is related to cytotoxicity. In the present examples, a subset of 12 compounds were used for evaluation of compound effects, using the CellTiter-Glo 3D assay (Promega), which detects ATP levels. Compounds may be tested using 7 point 5× dilutions starting from 100 uM. In the present examples, compound effects on 2D culture and 3D cultures were compared, using imaging and CellTiter-Glo 3D methods. Cultures were set up in parallel, using same cell number (2000). Cultures were allowed to grow for 48 hours, then treated with compounds for 5 days.
(§2) Images were analyzed using MetaXpress Software (Molecular Devices). Count Nuclei or Cell Scoring application modules were used for nuclear count live/dead assessment, or evaluation of cell number positive for specific markers. Output measurements included spheroid width, spheroid area, average intensity for calcein AM or EthD-III, counts of all nuclei, and evaluation of average nuclear size and average intensities. In addition, calcein AM-positive cells were counted, and their area and intensity values were recorded. In addition to cell count, areas and intensities could be determined for live (EthD-III negative) and dead (EthD-III positive) cells.

TU-BcX-4IC 2D culture [2] = experiment: Imaging read-out, 2D culture; details: Homo sapiens, 120 h, read-out: EC50, Imaging 2D
Procedure: as §1, §2

TU-BcX-4IC 3D cultures [3] = experiment: CellTiter-Glo 3D ATP assay, 3D culture; details: Homo sapiens, TU-BcX-4IC, 120 h, read-out: EC50, ATP 3D
Procedure: (§3) Cell metabolism may be measured by ATP level as another readout for effects of anti-cancer drugs that is related to cytotoxicity. […] Compounds may be tested using 7 point 5× dilutions starting from 100 uM. In the present examples, compound effects on 2D culture and 3D cultures were compared, using imaging and CellTiter-Glo 3D methods. Cultures were set up in parallel, using same cell number (2000). Cultures were allowed to grow for 48 hours, then treated with compounds for 5 days.

TU-BcX-4IC 2D culture [4] = experiment: CellTiter-Glo 3D ATP assay, 2D culture; details: Homo sapiens, TU-BcX-4IC, 120 h, read-out: EC50, ATP 2D
Procedure: as §3

TU-BcX-4IC tumoroids [5] = experiment: Secondary follow-up 3D assay, 7-point concentration curves, tumoroid disintegration measurement; type: cell-based, human; details: 3D assay, 7-point concentration curves, 5 days, nuclear count in projection images; for pEC50: read-out: EC50
Procedure: 10 compounds, including panobinostat, carfilzomib, and bortezomib were tested across 7 concentrations in the 1-10000 nM range. Spheroids were treated for 5 days with these compounds, then stained as described above (FIG. 4). […] EC50 values (Table 2) were determined using tumoroid disintegration measurement (nuclear count in projection images).
Automated staining of spheroids was performed for one hour. After staining, dye solution was replaced with 1×PBS.

TU-BcX-4IC tumoroids [6] = experiment: Library screening of NCI approved anti-cancer drugs: tumoroid integrity/disintegration by nuclear count in projection images (viability/spheroid disintegration assay); details: for minimal effective concentration: Homo sapiens, TU-BcX-4IC, 120 h; for Viability HIT?: also hit in viability/spheroid disintegration assay, 10 μM
Procedure: In addition, positive and negative controls were included in the test plates.
During incubation with compounds, tumoroids were monitored daily using TL imaging. Image analysis allowed characterization of tumoroid size, diameter, compactness, and integrity, as well as optical density (FIG. 2B, FIG. 7). Images of tumoroids were taken prior to compound treatment, and during day 3 and day 5 of compound treatment. For the end point assay, tumoroids were stained with viability and nuclear dyes on day 5 of compound treatment. Cells were stained with a combination of Hoechst, calcein AM, and Ethidium Homodimer III (EthD-III) and analyzed using high content imaging for complex phenotypic analysis; a subset of plates was set aside for additional assays including Cell Painting.
Images of organoids were taken with a 10× objective using Z-stack with a step size of 8 mm. Nuclei, live cells, and dead cells of stained cells were detected using DAPI, FITC, and TexasRed channels respectively. Maximum projection images were created from Z-stacks and analyzed as described in Methods. Multiple read-outs were generated characterizing spheroid area, diameter, intensities, and cell viability. In addition, cells inside each spheroid were counted using a nuclear stain. […] Suspended cells were plated into U-shape 384 well plates using a Biomek i7 automated liquid handler, incubated for 48 hours, and then treated with compounds, stained, and imaged. The protocols for compound additions, media, and staining included gentle media dispensing processes. Consecutively, tumoroids were cultured and monitored by automated imaging. Additionally, use of a collaborative robot enabled moving plates from the incubator to the imaging system, where transmitted light imaging or fluorescent imaging protocols were initiated.
For screening the compound library, maximum projection images may be employed. Spheroid disintegration is visible as an increase of spheroid size, in contrast to nicely shaped, round images of intact spheroids. Tumoroid disintegration can be described by several measurements: for example, increase in organoid area/diameter. Most accurate measurements may be done by counting cells or nuclei inside organoids using maximum projection images. […] Disintegrated tumoroids are made up of cells which are not held together in a tight aggregate but instead are loosely piled up in the well bottom resulting in 1) an increased projected area and 2) an increase in nuclear count in the projection images.
Simple nuclei count analysis in projection images was used as a reliable surrogate marker for organoid integrity/dis-integration.

TU-BcX-4IC tumoroids [7] = experiment: Cell Painting assay adapted for 3D tumoroids, phenotypic distance score and cluster analysis; details: 10 μM, phenotypic distance relative to DMSO controls
Procedure: For phenotypic profiling, the tumoroids were treated with a single 10 μM concentration of compound, using the methods described above. Notable changes in the staining protocol included increased times for dye incubation, fixation, and permeabilization. […] Images were acquired with Z-stacks using 20× magnification, and the analysis was carried out on projection (maximum) images.
Unlike the previous analysis that included cell count or live-dead evaluation, multiple read-outs may be collected from the whole spheroid to form their phenotypic profile. […] Instead, the spheroid images may also acquired in transmitted light (bright field), and these images may be used to identify the spheroid structures using a deep learning-based image segmentation approach which may improve the analysis. Features extracted from each spheroid may include object morphologies, intensities, and texture measurements for, e.g., the six cell stains and bright field images.
To determine hits from the assay, a phenotypic distance score may be calculated based on the PCA (principal component analysis) components.
This score is a measure of the phenotypic effect of the compounds on the tumoroids relative to the controls. All hits may then be clustered based on their phenotypic profiles using the normalized principal component scores.
To image the organoids labeled with the cell painting dyes, the ImageXpress Confocal HT.ai system, equipped with a laser light source, was used for image acquisition. The confocal mode (pinhole size 60 μm) was used to image organoids with a 20× Plan Apo Lambda, NA 0.75 objective, with z-stacking enabled (5p m step size). The maximum projection image was selected in the acquisition setup.
Images were analyzed using MetaXpress Software (Molecular Devices). […] For the Cell Painting analysis, image analysis was done in the IN Carta image analysis software. To segment the organoids, a deep learning-based model was created based on the TL channel to segment individual organoids. Following segmentation, measurements that include intensity, shape, area, and texture were extracted from all 6 fluorescent channels. In total, 210 analytical features were obtained from each organoid.
The plate was first incubated with MitoTracker DeepRed (500 nM) for 2 hours. The samples were fixed with 4% paraformaldehyde (PFA) in HBSS for 60 minutes. All wash steps were carried out by exchanging half the volume in each well with HBSS to minimize displacement of the organoids from the center of the well.
Measurements from IN Carta were exported as a CSV file and uploaded into StratoMineR (Core Life Analytica), a web-based data analytics platform for hit picking and phenotypic clustering.

[8] = Homo sapiens, TU-BcX-4IC, 120 h
[9] = read-out: Effective concentration, 3D tumoroids, 5 days treatment, tumoroid integrity by nuclear count, tested at 10 nM to 100 uM
[10] = read-out: Effective concentration

Molecule | minimal effective concentration (TU-BcX-4IC tumoroids [6]; [9]) [µM] | Distance Score (TU-BcX-4IC tumoroids [7]) | other results
C=CC(=O)N1CCC[C@@H](n2nc(-c3ccc(Oc4ccccc4)cc3)c3c(N)ncnc32)C1 [Ibrutinib] |  |  | pEC50 (TU-BcX-4IC 3D cultures [1]): ~4.70; pEC50 (TU-BcX-4IC 2D culture [2]): 4.69; pEC50 (TU-BcX-4IC 3D cultures [3]): 4.80; pEC50 (TU-BcX-4IC 2D culture [4]): 4.60
CC(=O)O[C@H]1C(=O)[C@@]2(C)[C@H]([C@H](OC(=O)c3ccccc3)[C@]3(O)C[C@H](OC(=O)[C@H](O)[C@@H](NC(=O)c4ccccc4)c4ccccc4)C(C)=C1C3(C)C)[C@]1(OC(C)=O)CO[C@@H]1C[C@@H]2O [Paclitaxel] | 1 |  | pEC50 (TU-BcX-4IC tumoroids [5]; [8]): 5.54
Cc1ccc(-c2cc(C(F)(F)F)nn2-c2ccc(S(N)(=O)=O)cc2)cc1 [Celecoxib] |  |  | EC50 (TU-BcX-4IC tumoroids [5]): no effect
CN1CCN(c2ccc(C(=O)Nc3n[nH]c4ccc(Cc5cc(F)cc(F)c5)cc34)c(NC3CCOCC3)c2)CC1 [Entrectinib] |  | 4.843 | Viability HIT? (TU-BcX-4IC tumoroids [6]): yes
CNC(=O)c1cc(Oc2ccc(NC(=O)Nc3ccc(Cl)c(C(F)(F)F)c3)c(F)c2)ccn1 [Regorafenib] | 0.1 |  | 
O=C(/C=C\n1cnc(-c2cc(C(F)(F)F)cc(C(F)(F)F)c2)n1)NNc1cnccn1 [Selinexor] |  | 5.004 | Viability HIT? (TU-BcX-4IC tumoroids [6]): no
CO[C@@]12[C@H](COC(N)=O)C3=C(C(=O)C(C)=C(N)C3=O)N1C[C@@H]1N[C@@H]12 [Mitomycin] | 1 |  | 
C[C@]12CC[C@@H]3c4ccc(O)cc4C[C@@H](CCCCCCCCC[S+]([O-])CCCC(F)(F)C(F)(F)F)[C@H]3[C@@H]1CC[C@@H]2O (stereo partly shown) [Fulvestrant] | 0.01 |  | 
C[C@@H](Oc1cc(-c2cnn(C3CCNCC3)c2)cnc1N)c1c(Cl)ccc(F)c1Cl [Crizotinib] |  |  | pEC50 (TU-BcX-4IC tumoroids [5]; [8]): < 6.00
CCN(CC)CCNC(=O)c1c(C)[nH]c(/C=C2\C(=O)Nc3ccc(F)cc32)c1C [Sunitinib] |  |  | pEC50 (TU-BcX-4IC tumoroids [5]; [8]): 5.77
CC[C@]1(O)C[C@H]2CN(CCc3c([nH]c4ccccc34)[C@@](C(=O)OC)(c3cc4c(cc3OC)N(C=O)[C@H]3[C@@](O)(C(=O)OC)[C@H](OC(C)=O)[C@]5(CC)C=CCN6CC[C@]43[C@@H]65)C2)C1 [Vincristine sulfate] | 0.1 |  | 
Oc1ncc(N(CCCl)CCCl)c(O)n1 [Uracil mustard] |  |  | minimal effective concentration (TU-BcX-4IC tumoroids [6]; [10]): 1 µM
CC(C)C[C@H](NC(=O)CNC(=O)c1cc(Cl)ccc1Cl)B1OC(=O)C(CC(=O)O)(CC(=O)O)O1 [Ixazomib citrate] | 0.1 |  | 
COc1cccc2c1C(=O)c1c(O)c3c(c(O)c1C2=O)C[C@@](O)(C(=O)CO)C[C@@H]3O[C@H]1C[C@H](N)[C@@H](O)[C@H](C)O1 [Epirubicin hydrochloride] | 1 | 5.883 | 
O=C(CCCCCCC(=O)Nc1ccccc1)NO [Vorinostat] | 1 | 5.079 | Viability HIT? (TU-BcX-4IC tumoroids [6]): no
COC(=O)C[C@](O)(CCCC(C)(C)O)C(=O)O[C@@H]1C(OC)=C[C@]23CCCN2CCc2cc4c(cc2[C@H]13)OCO4 [Omacetaxine] |  |  | pEC50 (TU-BcX-4IC tumoroids [5]): > 7.00; Effective concentration (TU-BcX-4IC tumoroids [6]; 3D tumoroids, 5 days treatment, tumoroid integrity by nuclear count, tested at 10 nM to 100 uM): 1 µM
CCN1CCN(Cc2ccc(Nc3ncc(F)c(-c4cc(F)c5nc(C)n(C(C)C)c5c4)n3)nc2)CC1 [Abemaciclib] |  | 5.819 | 
Dabrafenib mesylate |  | 6.249 | Viability HIT? (TU-BcX-4IC tumoroids [6]): yes
Cn1cc(-c2cc3c(N4CCN(c5ncc([C@@](C)(N)c6ccc(F)cc6)cn5)CC4)ncnn3c2)cn1 [Avapritinib] |  | 5.386 | Viability HIT? (TU-BcX-4IC tumoroids [6]): no

Molecule | minimal effective concentration (TU-BcX-4IC tumoroids [6]; [9]) [µM] | Distance Score (TU-BcX-4IC tumoroids [7]) | other results
COc1cc(Nc2c(C#N)cnc3cc(OCCCN4CCN(C)CC4)c(OC)cc23)c(Cl)cc1Cl [Bosutinib] | 0.1 |  | 
Cc1nc(Nc2ncc(C(=O)Nc3c(C)cccc3Cl)s2)cc(N2CCN(CCO)CC2)n1 [Dasatinib] | 0.1 |  | 
C=CC(=O)Nc1cc(Nc2nccc(-c3cn(C)c4ccccc34)n2)c(OC)cc1N(C)CCN(C)C [Osimertinib] |  | 5.241 | Viability HIT? (TU-BcX-4IC tumoroids [6]): yes
CN(C)C/C=C/C(=O)Nc1cc2c(Nc3ccc(F)c(Cl)c3)ncnc2cc1O[C@H]1CCOC1 [Afatinib] |  | 5.047 | 
COc1cc2c(Nc3ccc(Br)cc3F)ncnc2cc1OCC1CCN(C)CC1 [Vandetanib] | 1 | 5.185 | 
Cc1ccc(C(=O)Nc2ccc(CN3CCN(C)CC3)c(C(F)(F)F)c2)cc1C#Cc1cnc2cccnn12 [Ponatinib] |  |  | minimal effective concentration (TU-BcX-4IC tumoroids [6]; [10]): 0.1 µM
Cc1cnc(Nc2ccc(OCCN3CCCC3)cc2)nc1Nc1cccc(S(=O)(=O)NC(C)(C)C)c1 [Fedratinib] | 1 |  | 
CCc1nc(C(N)=O)c(Nc2ccc(N3CCC(N4CCN(C)CC4)CC3)c(OC)c2)nc1NC1CCOCC1 [Gilteritinib] | 1 | 5.239 | 
CC(=O)[C@]1(O)Cc2c(O)c3c(c(O)c2[C@@H](O[C@H]2C[C@H](N)[C@H](O)[C@H](C)O2)C1)C(=O)c1ccccc1C3=O [Idarubicin hydrochloride] | 1 |  | pEC50 (TU-BcX-4IC 3D cultures [1]): 5.41; pEC50 (TU-BcX-4IC 2D culture [2]): ~6.00; pEC50 (TU-BcX-4IC 3D cultures [3]): 6.84; pEC50 (TU-BcX-4IC 2D culture [4]): 7.17
COc1cc(N2CCC(N3CCN(C)CC3)CC2)ccc1Nc1ncc(Cl)c(Nc2ccccc2P(C)(C)=O)n1 [Brigatinib] | 1 | 5.771 | 
COC(=O)N[C@@H](C)CNc1nccc(-c2cn(C(C)C)nc2-c2cc(Cl)cc(NS(C)(=O)=O)c2F)n1 [Encorafenib] |  | 5.516 | Viability HIT? (TU-BcX-4IC tumoroids [6]): no
Clc1ccc(C(c2ccccc2Cl)C(Cl)Cl)cc1 (stereo not shown) [Mitotane] | 0.1 |  | 
O=C(Nc1cnn2ccc(N3CCC[C@@H]3c3cc(F)ccc3F)nc12)N1CC[C@H](O)C1 [Larotrectinib] |  | 5.667 | Viability HIT? (TU-BcX-4IC tumoroids [6]): no
CC[C@]1(O)C[C@@H]2CN(CCc3c([nH]c4ccccc34)[C@@](C(=O)OC)(c3cc4c(cc3OC)N(C)[C@H]3[C@@](O)(C(=O)OC)[C@H](OC(C)=O)[C@]5(CC)C=CCN6CC[C@]43[C@@H]65)C2)C1 [Vinblastine sulfate] | 0.1 |  | 
Cc1nc(NC(=O)N2CCC[C@H]2C(N)=O)sc1-c1ccnc(C(C)(C)C(F)(F)F)c1 [Alpelisib] |  | 5.834 | Viability HIT? (TU-BcX-4IC tumoroids [6]): yes
O=C(/C=C/c1cccc(S(=O)(=O)Nc2ccccc2)c1)NO [Belinostat] | 0.1 | 5.348 | Viability HIT? (TU-BcX-4IC tumoroids [6]): yes
CCCCC(=O)OCC(=O)[C@]1(O)Cc2c(O)c3c(c(O)c2[C@@H](O[C@H]2C[C@H](NC(=O)C(F)(F)F)[C@H](O)[C@H](C)O2)C1)C(=O)c1c(OC)cccc1C3=O [Valrubicin] |  | 8.136 | Viability HIT? (TU-BcX-4IC tumoroids [6]): yes
CC1(C)CCC(CN2CCN(c3ccc(C(=O)NS(=O)(=O)c4ccc(NCC5CCOCC5)c([N+](=O)[O-])c4)c(Oc4cnc5[nH]ccc5c4)c3)CC2)=C(c2ccc(Cl)cc2)C1 [Venetoclax] | 1 | 4.922 | 

— patent US20240331158A1, “CELL PAINTING AND ANALYSIS IN 3D CELLULAR MODELS” (priority 2023, published 2024)
